# From patent US20090131520A1, “Lipid metabolism Improving Composition” (priority 2005, published 2009)
# How the values were obtained:
# apolipoprotein B (B100) = assay: Secretion of apolipoprotein B (B100) from HepG2 cells into the test medium, ELISA; assay type: cell-based, human; settings: 150 μM, 24 hr culture, FIG. 1
# Experimental: (§1) A test medium containing 150 μM of linolic acid menthol ester (1% BSA-DMEM) was provided. In this test medium, human liver-derived HepG2 cells were cultured for 24 hr, and the cells and the medium were collected.
# (§2) Evaluation 2: Test on Secretion (Inhibition/Enhancement) of Apolipoproteins A and B
# (§3) The amount of apolipoprotein A (A1) and apolipoprotein B (B100) secreted from the human liver-derived HepG2 cells into the test medium was measured by the ELISA method.
# apolipoprotein A (A1) = assay: Secretion of apolipoprotein A (A1) from HepG2 cells into the test medium, ELISA; assay type: cell-based, human; settings: 150 μM, 24 hr culture, FIG. 2
# Experimental: as §1, §2, §3
smiles,measurement,setting,value
CCCCC/C=C\C/C=C\CCCCCCCC(=O)OC1CC(C)CCC1C(C)C (centres unmarked) [linolic acid menthol ester],amount of apolipoprotein B (B100) secreted,apolipoprotein B (B100),inhibit the secretion of apolipoprotein B (B100)
same,amount of apolipoprotein A (A1) secreted,apolipoprotein A (A1),significantly enhance the secretion of apolipoprotein A (A1)
